Laboratory results published in US12064425B2, “Compositions and methods for targeting a viral infection” (priority 2018, dated 2024).
Entries after “also recorded” stand apart in the source; their conditions may differ. Like-named read-outs stand apart in the source and are kept apart here.

Assays:
HIV-1 Env = HIV-1 Env (Human immunodeficiency virus type 1, UniProt Q71014)
2F5 Fab = assay: SPR analysis of compound binding to 2F5 Fab
HIV-1 Env pseudoviruses = format: cell-based
[1] = molecular target: 92UG037.8 HIV-1 Env W666A (Human immunodeficiency virus type 1, UniProt Q71014, W659A); format: cell-based
[2] = system: Env-expressing cells, CD4- and CCR5-expressing cells
gp41-inter = gp41-inter (Human immunodeficiency virus type 1, UniProt Q71014); format: binding, HIV-1
[3] = system: gp41-inter binding to 2F5 Fab; set-up: species or system HIV-1
[4] = system: gp41-inter binding to 240D Fab; set-up: species or system HIV-1

Cc1cc(N)c2ccccc2n1 [4-aminoquinaldine]
activity in blocking HIV-1 Env mediated cell-cell fusion (in words) (HIV-1 Env): no activity

Cc1cc(N)c2ccccc2[n+]1CCCCCCCCCC[n+]1c(C)cc(N)c2ccccc21 [dequalinium, quinolinium,1,1′-(1,10-decanediyl)-bis(4-amino-2-methyldiiodide)]
binding to 2F5 (2F5 Fab; SPR): no binding | inhibition of HIV-1 infectivity versus MuLV control (HIV-1 Env pseudoviruses): greater inhibition to several HIV-1 isolates | resistance of mutant Env to inhibition of cell-cell fusion versus wildtype Env [1]: significantly more resistant | inhibition of cell-cell fusion mediated by Envs of primary HIV-1 isolates of different clades (HIV-1 Env): can also target Envs from multiple primary HIV-1 isolates of different clades; also recorded: specifically inhibited cell-cell fusion | cytotoxicity by an assay measuring ATP concentration [2]: minimal level of cytotoxicity | cytotoxicity in the viral infectivity assay (TZM.bl cells): more cytotoxicity than in the cell-cell fusion assay

c1ccc2c(c1)ccc[n+]2CCCCCCCCCC[n+]1cccc2ccccc21 [Compound S2C10]
binding to gp41-inter (in words) (gp41-inter): no binding | inhibition potency in the cell-cell fusion assay compared to dequalinium (HIV-1 Env): significant decreases in potency

Nc1cc[n+](CCCCCCCCCC[n+]2ccc(N)c3cc(Br)ccc32)c2ccc(Br)cc12 [Compound S2C7]
inhibition potency in the cell-cell fusion assay compared to dequalinium (HIV-1 Env): modestly improved potency

Nc1cc[n+](CCCCCCCCCC[n+]2ccc(N)c3ccccc32)c2ccccc12 [Compound S2C1]
inhibition potency in the cell-cell fusion assay compared to dequalinium (HIV-1 Env): significant decreases in potency

Cc1cc(N)cc[n+]1CCCCCCCCCC[n+]1ccc(N)cc1C [Compound S2C9]
inhibition potency in the cell-cell fusion assay compared to dequalinium (HIV-1 Env): significant decreases in potency

Nc1c2c([n+](CCCCCCCCCC[n+]3c4c(c(N)c5ccccc53)CCC4)c3ccccc13)CCC2 [Compound S2C3]
binding to 2F5 (2F5 Fab): no binding | competition with 2F5 for binding to gp41-inter [3]: competed with 2F5 for binding to gp41-inter | competition with 240D Fab for binding to gp41-inter [4]: not with a cluster I antibody, 240D Fab | potency of inhibition of viral infectivity compared to dequalinium (HIV-1 Env pseudoviruses): improvement in potency | inhibition potency in the cell-cell fusion assay compared to dequalinium (HIV-1 Env): significant improvement
